Results taken from ChEMBL document CHEMBL1201862, “PubChem BioAssay data set” (2004).
The source made the active and inactive calls.

Key:
[1] = biological target: Photoreceptor-specific nuclear receptor (Homo sapiens, UniProt Q9Y5X4); assay type: functional, cell-based;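 further: CHO-S cells with Gal4-NCOR and VP16-NR2E3 two-hybrid luciferase reporter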
[2] = microbe, parasite or virus in culture; assay type: functional; settings: Mycobacterium tuberculosis
[3] = luciferase reporter signal suppression in cells – H4 neuroglioma cells, luminescence, dose response (AID 1990); assay type: functional, cell-based
[4] = Luminescence Cell-Based Dose Response HTS to Identify Inhibitors of 5'UTR Stem-Loop Driven Prion Protein mRNA Translation in H4 Neuroglioblastoma Cells. [Related pubchem assays: 1827 (Project Summary), 1813 (Primary HTS)]; assay type: functional
[5] = alpha-synuclein stem-loop luciferase translation blockers – H4 neuroglioma cells, luminescence, confirmation (AID 1988); assay type: functional, cell-based
cells = assay type: functional
HEK293 = experiment: EBV LMP1 TES2 canonical NF-kB signalling blockers – cell-based, HEK293, luciferase, cherry-pick, dose response (AID 588343); assay type: functional; settings: Homo sapiens
[6] = viability of uninfected HEp-2 cells – cell-based, HTS, cytotoxicity control for RSV inhibitor project, dose response (AID 2410); assay type: functional; settings: human respiratory syncytial virus
Vero = experiment: cells; assay type: functional; settings: Chlorocebus sabaeus
[7] = biological target: Heat shock protein HSP 90-alpha (Homo sapiens, UniProt P07900); assay type: functional, organism-based
[8] = HEK-293T viability loss after treatment – luminescence, T-cell screen hits, cytotoxicity control for TCR NF-kB inhibitor project, dose response (AID 489026); assay type: functional, cell-based;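 further: cells exposed to compound about 14 hours before the viability readout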
[9] = biological target: T1, DNA repair protein RAD52 homolog (Homo sapiens, UniProt P43351); assay type: functional, biochemical
T1 sequence (P43351 whole entry): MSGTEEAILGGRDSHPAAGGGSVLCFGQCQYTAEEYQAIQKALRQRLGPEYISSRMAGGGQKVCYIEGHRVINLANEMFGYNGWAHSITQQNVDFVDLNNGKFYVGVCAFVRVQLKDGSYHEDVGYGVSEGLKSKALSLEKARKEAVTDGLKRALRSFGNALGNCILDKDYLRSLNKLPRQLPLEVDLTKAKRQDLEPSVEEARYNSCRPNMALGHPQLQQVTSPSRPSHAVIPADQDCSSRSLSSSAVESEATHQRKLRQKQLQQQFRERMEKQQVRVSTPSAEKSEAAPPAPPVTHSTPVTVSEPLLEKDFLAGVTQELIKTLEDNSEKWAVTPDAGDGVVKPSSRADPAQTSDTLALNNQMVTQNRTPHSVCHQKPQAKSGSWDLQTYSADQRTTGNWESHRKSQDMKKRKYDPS

[10] = NIH-3T3 fibroblast cytotoxicity, dose response, cytotoxicity control, cell-based, fluorescence, Alamar Blue, secondary assay (AID 2327); assay type: functional;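 further: NIH-3T3 mouse fibroblasts cultured with fluconazole at 8 µg/mL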
[11] = tested on: Streptococcus sp. 'group A'; experiment: Streptococcus pyogenes SK(-)GAS viability under kanamycin – luminescence, BacTiterGlo, confirmation, counter-screen for streptokinase expression inhibitor project, dose response (AID 1900); assay type: functional, organism-based
[12] = fluconazole-exposed Candida albicans growth modulators – fluorescence, retest, confirmation (AID 2467); assay type: functional, cell-based
Streptococcus = experiment: GAS UMAA2166 growth inhibition – luminescence, BacTiterGlo, counter-screen for streptokinase expression inhibitor project, dose response (AID 1915); assay type: functional, organism-based;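 further: potency for reduction of bacterial viability or growth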
[13] = biological target: T2, Short transient receptor potential channel 4 (Mus musculus, UniProt Q9QUQ5); experiment: calcium entry via TRPC4 opening agents – cell-based, HEK293 TRPC4/mu-opioid, Fluo-4 calcium, dose response (AID 434937); assay type: functional
T2 sequence (Q9QUQ5 whole entry): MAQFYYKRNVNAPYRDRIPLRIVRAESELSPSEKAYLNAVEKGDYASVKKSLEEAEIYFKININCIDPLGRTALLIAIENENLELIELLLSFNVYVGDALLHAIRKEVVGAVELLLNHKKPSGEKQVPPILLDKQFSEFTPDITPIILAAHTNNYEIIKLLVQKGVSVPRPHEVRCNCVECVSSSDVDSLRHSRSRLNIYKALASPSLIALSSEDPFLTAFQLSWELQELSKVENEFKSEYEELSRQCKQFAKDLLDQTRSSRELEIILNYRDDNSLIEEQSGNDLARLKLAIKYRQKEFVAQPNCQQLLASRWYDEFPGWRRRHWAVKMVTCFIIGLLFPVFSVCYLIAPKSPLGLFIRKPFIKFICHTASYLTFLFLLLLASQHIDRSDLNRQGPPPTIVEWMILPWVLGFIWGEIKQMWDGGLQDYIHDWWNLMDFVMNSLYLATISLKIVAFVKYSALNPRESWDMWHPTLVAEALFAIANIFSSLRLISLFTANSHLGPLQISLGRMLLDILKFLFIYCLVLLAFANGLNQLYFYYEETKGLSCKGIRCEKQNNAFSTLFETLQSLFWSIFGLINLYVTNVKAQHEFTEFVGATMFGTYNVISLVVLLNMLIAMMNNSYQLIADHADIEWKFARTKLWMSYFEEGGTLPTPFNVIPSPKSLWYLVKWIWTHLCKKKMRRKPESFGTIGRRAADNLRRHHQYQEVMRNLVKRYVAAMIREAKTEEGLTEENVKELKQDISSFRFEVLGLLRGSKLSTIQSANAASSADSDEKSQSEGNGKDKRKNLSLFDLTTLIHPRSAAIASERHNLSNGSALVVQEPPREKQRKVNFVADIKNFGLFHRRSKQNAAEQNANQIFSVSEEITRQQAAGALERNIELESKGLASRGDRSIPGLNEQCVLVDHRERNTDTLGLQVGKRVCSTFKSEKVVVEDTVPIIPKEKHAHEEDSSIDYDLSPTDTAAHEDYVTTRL

[14] = biological target: Induced myeloid leukemia cell differentiation protein Mcl-1 (Homo sapiens, UniProt Q07820); assay type: functional
Fatty acid synthase [15] = biological target: T3, Fatty acid synthase (Homo sapiens, UniProt P49327); experiment: inhibition of human FAS-TE enzyme activity – biochemical, endpoint fluorescence intensity, uHTS hits, dose response (AID 624327); assay type: functional;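 further: fluorescence from hydrolysis of an O-methyl fluorescein acyl ester substrate by the enzyme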
Fatty acid synthase [16] = biological target: T3, Fatty acid synthase; experiment: inhibition of human FAS-TE enzyme activity – biochemical, kinetic fluorescence intensity, dose response (AID 624326); assay type: functional;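 further: rate of fluorescence rise from hydrolysis of a fluorogenic O-methyl fluorescein ester substrate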
[17] = Trypanosoma cruzi growth suppression in host cells – NIH3T3 host cells, beta-gal luminescence, confirmation (AID 2044); assay type: functional, cell-based;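 further: intracellular parasites grown in NIH/3T3 mouse fibroblasts as host cells; luminescent beta-galactosidase reporter signal from transgenic T. cruzi replicating inside host cells; inhibitors lower the luminescence signal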
[18] = NIH3T3 cell viability loss – ATP luminescence, mouse fibroblasts, counter-screen, dose response (AID 2010); assay type: functional, cell-based;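 further: cells exposed to compound for about 90 hours before reading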
[19] = biological target: T4, High affinity choline transporter 1 (Homo sapiens, UniProt Q9GZV3); experiment: human choline transporter blockers, potency – cell-based, 5-point CRC, membrane potential dye, dose response (AID 504840); assay type: functional
T4 sequence (Q9GZV3 whole entry): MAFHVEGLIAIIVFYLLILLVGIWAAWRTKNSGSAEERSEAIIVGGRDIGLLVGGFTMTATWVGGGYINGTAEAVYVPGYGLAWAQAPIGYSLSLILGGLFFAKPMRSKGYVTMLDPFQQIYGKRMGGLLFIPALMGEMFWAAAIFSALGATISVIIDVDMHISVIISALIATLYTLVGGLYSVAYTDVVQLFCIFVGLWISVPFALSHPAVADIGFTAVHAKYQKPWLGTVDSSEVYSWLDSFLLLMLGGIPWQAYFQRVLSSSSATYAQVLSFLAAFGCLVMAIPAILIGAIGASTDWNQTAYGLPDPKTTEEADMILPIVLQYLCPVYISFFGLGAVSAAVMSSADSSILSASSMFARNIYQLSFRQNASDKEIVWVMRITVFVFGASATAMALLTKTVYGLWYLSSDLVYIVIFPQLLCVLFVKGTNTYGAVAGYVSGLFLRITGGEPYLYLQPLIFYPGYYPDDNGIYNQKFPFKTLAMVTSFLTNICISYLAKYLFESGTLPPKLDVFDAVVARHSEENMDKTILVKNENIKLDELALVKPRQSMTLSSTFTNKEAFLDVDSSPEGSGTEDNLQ

[20] = Luminescence Cell-Based Dose Retest to Confirm Inhibitors of Cancer Stem Cells. [Related pubchem assays (depositor defined):AID2717, AID2721]; assay type: functional; settings: Homo sapiens
[21] = biological target: T5, Histone-lysine N-methyltransferase NSD2 (Homo sapiens, UniProt O96028); assay type: biochemical
T5 sequence (O96028 whole entry): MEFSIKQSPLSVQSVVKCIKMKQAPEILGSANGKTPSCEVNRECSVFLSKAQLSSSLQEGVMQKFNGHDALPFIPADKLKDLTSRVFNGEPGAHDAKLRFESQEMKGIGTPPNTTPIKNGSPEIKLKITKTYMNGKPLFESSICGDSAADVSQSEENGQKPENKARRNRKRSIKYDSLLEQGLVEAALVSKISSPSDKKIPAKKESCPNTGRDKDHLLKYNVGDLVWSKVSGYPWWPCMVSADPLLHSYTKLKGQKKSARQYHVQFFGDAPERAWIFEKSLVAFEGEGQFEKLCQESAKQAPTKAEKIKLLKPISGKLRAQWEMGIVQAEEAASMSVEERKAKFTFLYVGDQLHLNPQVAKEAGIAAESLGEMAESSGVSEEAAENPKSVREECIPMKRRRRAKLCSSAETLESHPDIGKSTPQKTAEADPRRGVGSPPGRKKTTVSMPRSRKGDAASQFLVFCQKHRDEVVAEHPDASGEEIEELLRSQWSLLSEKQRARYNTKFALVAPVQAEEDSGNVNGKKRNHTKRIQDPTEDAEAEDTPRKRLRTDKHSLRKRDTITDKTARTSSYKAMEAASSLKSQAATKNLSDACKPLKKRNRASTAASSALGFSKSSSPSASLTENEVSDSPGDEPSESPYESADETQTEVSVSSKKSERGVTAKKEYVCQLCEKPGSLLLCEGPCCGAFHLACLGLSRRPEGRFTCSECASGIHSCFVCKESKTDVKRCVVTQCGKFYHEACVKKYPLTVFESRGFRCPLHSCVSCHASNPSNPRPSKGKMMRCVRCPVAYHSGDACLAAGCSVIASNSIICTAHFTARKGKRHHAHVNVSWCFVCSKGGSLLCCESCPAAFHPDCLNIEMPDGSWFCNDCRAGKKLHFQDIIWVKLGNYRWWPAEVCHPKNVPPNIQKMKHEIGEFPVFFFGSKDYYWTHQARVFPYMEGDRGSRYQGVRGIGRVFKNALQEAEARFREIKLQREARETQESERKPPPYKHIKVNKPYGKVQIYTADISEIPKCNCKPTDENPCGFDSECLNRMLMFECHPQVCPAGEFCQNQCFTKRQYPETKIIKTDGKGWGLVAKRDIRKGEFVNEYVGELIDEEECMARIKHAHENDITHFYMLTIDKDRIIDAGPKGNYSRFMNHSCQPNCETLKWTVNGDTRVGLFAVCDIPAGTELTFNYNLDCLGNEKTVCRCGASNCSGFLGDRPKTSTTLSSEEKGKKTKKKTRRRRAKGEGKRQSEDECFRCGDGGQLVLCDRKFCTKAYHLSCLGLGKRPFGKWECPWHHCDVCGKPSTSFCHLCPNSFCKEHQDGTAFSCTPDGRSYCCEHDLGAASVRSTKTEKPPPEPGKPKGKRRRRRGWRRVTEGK

T3 sequence (P49327 whole entry): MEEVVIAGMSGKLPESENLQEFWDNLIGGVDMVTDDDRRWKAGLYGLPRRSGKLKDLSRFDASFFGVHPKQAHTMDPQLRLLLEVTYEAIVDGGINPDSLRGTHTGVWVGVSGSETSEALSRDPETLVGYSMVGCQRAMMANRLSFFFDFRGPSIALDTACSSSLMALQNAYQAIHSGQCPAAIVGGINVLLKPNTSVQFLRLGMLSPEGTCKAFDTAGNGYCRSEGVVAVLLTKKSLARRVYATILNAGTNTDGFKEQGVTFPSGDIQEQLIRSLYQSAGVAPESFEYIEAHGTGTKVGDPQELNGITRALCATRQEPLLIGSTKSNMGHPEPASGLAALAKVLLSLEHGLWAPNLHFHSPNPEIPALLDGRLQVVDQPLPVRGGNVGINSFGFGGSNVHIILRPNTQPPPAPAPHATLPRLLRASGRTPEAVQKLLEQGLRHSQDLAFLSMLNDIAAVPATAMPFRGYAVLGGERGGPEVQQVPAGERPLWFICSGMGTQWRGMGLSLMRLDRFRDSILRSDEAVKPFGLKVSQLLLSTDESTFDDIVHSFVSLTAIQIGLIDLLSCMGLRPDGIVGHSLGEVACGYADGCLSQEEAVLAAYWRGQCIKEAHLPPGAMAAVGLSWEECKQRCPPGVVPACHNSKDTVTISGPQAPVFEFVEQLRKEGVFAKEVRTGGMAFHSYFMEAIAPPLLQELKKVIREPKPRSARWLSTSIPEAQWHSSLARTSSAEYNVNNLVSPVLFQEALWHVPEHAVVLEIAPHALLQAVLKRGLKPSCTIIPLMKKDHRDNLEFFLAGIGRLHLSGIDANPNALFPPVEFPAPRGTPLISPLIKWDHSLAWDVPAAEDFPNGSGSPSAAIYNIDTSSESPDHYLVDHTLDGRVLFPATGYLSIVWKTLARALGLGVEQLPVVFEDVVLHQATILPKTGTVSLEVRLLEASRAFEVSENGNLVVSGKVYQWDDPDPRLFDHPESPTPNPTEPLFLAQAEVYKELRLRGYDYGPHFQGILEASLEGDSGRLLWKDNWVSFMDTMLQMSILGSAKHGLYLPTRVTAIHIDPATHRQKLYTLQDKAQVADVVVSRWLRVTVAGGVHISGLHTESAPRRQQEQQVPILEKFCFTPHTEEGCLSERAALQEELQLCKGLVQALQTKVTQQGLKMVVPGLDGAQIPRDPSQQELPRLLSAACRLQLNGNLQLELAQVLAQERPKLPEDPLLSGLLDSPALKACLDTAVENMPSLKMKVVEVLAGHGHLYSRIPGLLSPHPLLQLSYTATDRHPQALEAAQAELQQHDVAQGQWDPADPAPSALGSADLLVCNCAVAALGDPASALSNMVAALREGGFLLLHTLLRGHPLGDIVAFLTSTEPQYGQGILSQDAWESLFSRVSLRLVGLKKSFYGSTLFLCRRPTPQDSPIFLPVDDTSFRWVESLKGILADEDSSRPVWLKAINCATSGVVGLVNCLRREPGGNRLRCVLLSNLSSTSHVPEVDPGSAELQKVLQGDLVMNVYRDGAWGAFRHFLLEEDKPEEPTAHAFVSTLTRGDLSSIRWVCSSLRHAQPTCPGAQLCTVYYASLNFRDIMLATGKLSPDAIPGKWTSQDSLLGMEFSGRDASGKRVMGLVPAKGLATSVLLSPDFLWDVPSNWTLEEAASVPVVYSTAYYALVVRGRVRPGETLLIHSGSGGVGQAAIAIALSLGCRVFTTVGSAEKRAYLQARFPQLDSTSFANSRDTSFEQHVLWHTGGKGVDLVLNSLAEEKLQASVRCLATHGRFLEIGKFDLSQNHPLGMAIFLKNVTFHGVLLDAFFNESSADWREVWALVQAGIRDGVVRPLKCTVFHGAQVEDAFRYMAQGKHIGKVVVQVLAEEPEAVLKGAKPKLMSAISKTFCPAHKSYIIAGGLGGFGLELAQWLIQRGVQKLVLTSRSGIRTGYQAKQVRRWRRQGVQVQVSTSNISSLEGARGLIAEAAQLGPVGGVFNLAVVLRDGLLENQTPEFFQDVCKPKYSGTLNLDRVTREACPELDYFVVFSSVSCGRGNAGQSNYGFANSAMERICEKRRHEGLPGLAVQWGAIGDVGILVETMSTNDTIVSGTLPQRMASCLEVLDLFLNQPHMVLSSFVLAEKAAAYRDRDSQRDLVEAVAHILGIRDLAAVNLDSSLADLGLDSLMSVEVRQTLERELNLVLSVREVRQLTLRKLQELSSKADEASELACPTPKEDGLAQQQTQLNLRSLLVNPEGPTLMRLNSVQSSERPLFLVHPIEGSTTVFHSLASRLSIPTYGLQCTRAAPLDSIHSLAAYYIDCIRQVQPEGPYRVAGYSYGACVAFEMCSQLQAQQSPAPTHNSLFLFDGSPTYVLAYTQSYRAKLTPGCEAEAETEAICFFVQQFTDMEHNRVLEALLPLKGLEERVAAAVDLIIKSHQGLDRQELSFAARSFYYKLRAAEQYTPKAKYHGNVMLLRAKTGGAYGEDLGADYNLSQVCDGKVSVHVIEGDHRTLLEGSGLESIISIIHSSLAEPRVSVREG
Photoreceptor-specific nuclear receptor, sequence (Q9Y5X4 whole entry, the tested form may be a part): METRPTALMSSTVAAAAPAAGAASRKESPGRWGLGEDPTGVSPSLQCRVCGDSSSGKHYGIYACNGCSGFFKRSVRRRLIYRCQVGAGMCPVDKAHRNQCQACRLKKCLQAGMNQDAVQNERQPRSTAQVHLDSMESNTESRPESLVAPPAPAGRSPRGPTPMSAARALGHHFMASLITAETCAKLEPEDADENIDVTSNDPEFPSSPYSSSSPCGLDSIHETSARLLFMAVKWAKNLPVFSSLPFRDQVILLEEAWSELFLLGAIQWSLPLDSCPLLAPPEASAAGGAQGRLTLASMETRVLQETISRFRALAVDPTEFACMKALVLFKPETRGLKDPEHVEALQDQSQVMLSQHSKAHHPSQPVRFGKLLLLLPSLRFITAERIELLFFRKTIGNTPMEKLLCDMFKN
Induced myeloid leukemia cell differentiation protein Mcl-1, sequence (Q07820 whole entry): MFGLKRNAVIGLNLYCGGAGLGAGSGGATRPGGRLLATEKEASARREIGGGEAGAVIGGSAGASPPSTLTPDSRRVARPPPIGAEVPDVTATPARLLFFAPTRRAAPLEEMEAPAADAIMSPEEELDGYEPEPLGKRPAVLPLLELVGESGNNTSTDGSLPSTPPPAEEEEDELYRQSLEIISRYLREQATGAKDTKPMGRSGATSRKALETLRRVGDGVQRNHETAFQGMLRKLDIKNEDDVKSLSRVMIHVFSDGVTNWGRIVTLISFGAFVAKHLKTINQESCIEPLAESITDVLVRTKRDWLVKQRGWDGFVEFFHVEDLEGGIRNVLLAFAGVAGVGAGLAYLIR

## CCC1(C)Cc2c(sc3[nH]c(=S)n(Cc4ccccc4)c(=O)c23)CO1 (configuration not stated)
[1]
  IC50: 4.95 µM (active)

## Cc1c(Cl)ccc2sc(N3CCN(C(=O)C4=COCCO4)CC3)nc12
[2]
  CC50: 38.1 µM (active)
[1]
  IC50: 4.06 µM (active)

## COc1ccc(/C=C/c2nc3ccccc3c(=O)o2)cc1
[3]
  EC50: 8.15 µM (inconclusive)
[4]
  EC50: 3.01 µM (active)
[5]
  EC50: 7.8 µM (inconclusive)
cells
  IC50: 21.5 µM (active)
HEK293
  AC50: 0.507 µM (active)

## O=C(Nc1ccc(CN2CCOCC2)cc1)c1ccc(-c2cc(Cl)ccc2Cl)o1
[6]
  CC50: 4.45 µM (active)
[2]
  CC50: 29.3 µM (active)
Vero
  CC50: 21.1 µM (active)

## CCN1C(=O)/C(=C\C(=O)c2cccs2)c2cc(Br)ccc21
[7]
  AC50: 3.66 µM (active)
Vero
  CC50: > 25 µM (active)

## CC1=C(C(=O)OCc2ccc3c(c2)OCO3)C(c2ccc(Cl)cc2)NC(=O)N1 (configuration not stated)
[8]
  IC50: > 80 µM (inactive)
HEK293
  AC50: 0.299 µM (active)

## COc1ccc(NC(=O)c2cc3ccccc3oc2=O)cc1
HEK293
  AC50: 0.673 µM (active)

## COc1cc2cc(-c3ccc(OC)c(OC)c3C)nc(N)c2cc1OC
[3]
  EC50: 0.597 µM (active)
[4]
  EC50: 0.48 µM (active)
[5]
  EC50: 0.344 µM (active)
Vero
  CC50: 1.67 µM (active)
[9]
  AC50: 12.4 µM (active)

## COc1ccc(C(=O)NNC(=S)NC(=O)c2ccccc2)cc1
[10]
  EC50: > 150 µM (inactive)
[3]
  EC50: > 120 µM (not active)
[11]
  EC50: 1.18 µM (active)
[4]
  EC50: 11.6 µM (active)
[5]
  EC50: 15.5 µM (active)
[12]
  EC50: 2.08 µM (active)
Streptococcus
  EC50: 3.03 µM (active)
[13]
  EC50: 5.96 µM (active)

## NC(=S)n1nc(-c2ccc([N+](=O)[O-])cc2)c(/N=N/c2ccc(Cl)cc2)c1O
[14]
  IC50: > 54 µM (active)
Fatty acid synthase [15]
  IC50: 17.5 µM (active)
Fatty acid synthase [16]
  IC50: 9.27 µM (active)

## CN=C(S)N=CNOCc1ccc(Cl)cc1Cl
[10]
  EC50: 7.07 µM (inconclusive)
[12]
  EC50: < 0.03 µM (active)
[17]
  EC50: 0.368 µM (active)
[18]
  EC50: 7.02 µM (active)
[1]
  IC50: 3.21 µM (active)

## O=C1CC(O)(C(F)(F)F)Oc2c1ccc1ccccc21 (configuration not stated)
[13]
  EC50: 9.44 µM (active)
[19]
  IC50: 12.9 µM (active)

## COc1ccc(-c2csc3nc(-c4ccccc4F)oc(=O)c23)cc1OC
[20]
  AC50: 5.19 µM (active)
Fatty acid synthase [15]
  IC50: 9.02 µM (active)
Fatty acid synthase [16]
  IC50: 6.25 µM (active)

## CC(C)(C)C(=O)Nc1ccc(Sc2ccc([N+](=O)[O-])cc2)cc1
[1]
  IC50: 3.51 µM (active)

## CCC(=O)N1CCCc2cc(S(=O)(=O)N3CCN(c4ccccn4)CC3)ccc21
[1]
  IC50: 2.3 µM (active)

## CCCCN(CC)CCNC(=O)c1ccc2c(Cl)c3c(nc2c1)CCC3
[13]
  EC50: 0.024 µM (active)
[21]
  AC50: > 20 µM (inactive)

## CCOc1cc(/C=C/C(=O)c2ccc(C)cc2)ccc1OCC(=O)N(C)C
Vero
  CC50: > 25 µM (active)
